Target: T1, GlyT1 (Homo sapiens, UniProt P48067)
T1 construct: expressed in transfected cells
T1 sequence (P48067 1-706): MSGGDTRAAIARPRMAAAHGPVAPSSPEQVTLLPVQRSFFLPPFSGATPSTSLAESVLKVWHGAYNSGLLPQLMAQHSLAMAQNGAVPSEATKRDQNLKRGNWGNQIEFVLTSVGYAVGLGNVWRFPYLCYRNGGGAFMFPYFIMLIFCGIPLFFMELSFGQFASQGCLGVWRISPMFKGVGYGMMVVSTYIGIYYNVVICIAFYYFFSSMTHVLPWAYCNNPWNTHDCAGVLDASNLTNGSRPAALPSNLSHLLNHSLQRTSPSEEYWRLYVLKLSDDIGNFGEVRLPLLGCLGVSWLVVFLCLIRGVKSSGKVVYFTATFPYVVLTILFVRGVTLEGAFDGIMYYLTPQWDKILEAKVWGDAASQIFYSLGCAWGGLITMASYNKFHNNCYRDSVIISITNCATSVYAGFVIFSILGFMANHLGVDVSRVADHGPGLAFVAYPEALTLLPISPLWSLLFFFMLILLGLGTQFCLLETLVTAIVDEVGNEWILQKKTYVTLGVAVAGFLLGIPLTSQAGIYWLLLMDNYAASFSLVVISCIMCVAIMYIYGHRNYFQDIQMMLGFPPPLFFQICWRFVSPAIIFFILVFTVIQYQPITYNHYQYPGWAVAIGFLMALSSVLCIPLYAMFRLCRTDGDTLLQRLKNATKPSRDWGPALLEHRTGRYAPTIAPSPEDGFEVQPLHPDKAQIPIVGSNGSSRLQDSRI
Assay: Glycine Transporter 1 (GlyT1) uptake assay, scintillation proximity assay of [14C]-glycine uptake
Assay type: cell-based
Details: [14C]-glycine uptake; read-out: GlyT1 (pIC50) (converted)
Method: Glycine Transporter 1 (GlyT1) Uptake Assay
HEK293 cells stably expressing hGlyT1c were plated onto 96-well Cytostar plates at a density of 4.5×10^4 cells per well in 100 μL of growth media (DMEM containing 10% fetal bovine serum) and incubated overnight in a 37° C., 10% CO2 incubator. The following day, stock compounds in 10 mM DMSO were serially diluted in DMSO, and 2× compound solutions were prepared by diluting compound again (1:100) in HBSS. […] Plates were then read on a MicroBeta plate counter (Perkin Elmer). Dose-response data for tested compounds were analyzed and curves were fit using a four parameter logistic fit to determine IC50 values. […]

Row | SMILES | IC50 [nM]
1 | COc1c(S(C)(=O)=O)ccc(O[C@@H](C)C(F)(F)F)c1C(=O)N1CC(c2ccc(C#N)cc2Cl)C1 [Example 236, 3-Chloro-4-[1-(3-methanesulfonyl-2-methoxy-6-{[(2S)-1,1,1-trifluoropropan-2-yl]oxy}benzoyl)azetidin-3-yl]benzonitrile] | < 100
2 | COc1c(S(C)(=O)=O)ccc(O[C@@H](C)C(F)(F)F)c1C(=O)N1CC(c2ccc(F)c(F)c2)C1 [Example 198, 3-(3,4-Difluorophenyl)-1-(3-methanesulfonyl-2-methoxy-6-{[(2S)-1,1,1-trifluoropropan-2-yl]oxy}benzoyl)azetidine] | 100 to 1000
3 | COc1c(S(C)(=O)=O)ccc(O[C@H](C)C(F)(F)F)c1C(=O)N1CC(Oc2ccc(F)cc2)C1 [Example 188, 3-(4-Fluorophenoxy)-1-(3-methanesulfonyl-2-methoxy-6-{[(2R)-1,1,1-trifluoropropan-2-yl]oxy}benzoyl)azetidine] | < 100
4 | C[C@H](Oc1ccc(C#N)c(Cl)c1C(=O)N1CC(c2ccc(C#N)cc2Cl)C1)C(F)(F)F [Example 131, 2-Chloro-3-{[3-(2-chloro-4-cyanophenyl)azetidin-1-yl]carbonyl}-4-{[(2S)-1,1,1-trifluoropropan-2-yl]oxy}benzonitrile] | < 100
5 | COc1c(C#N)ccc(O[C@@H](C)C(F)(F)F)c1C(=O)N1CC(Cc2ccc(C(F)(F)F)cc2)C1 [Example 181, 2-Methoxy-3-[(3-{[4-(trifluoromethyl)phenyl]methyl}azetidin-1-yl)carbonyl]-4-{[(2S)-1,1,1-trifluoropropan-2-yl]oxy}benzonitrile] | 100 to 1000
6 | CC(Oc1ccc(C#N)c(Cl)c1C(=O)N1CC(c2ccc(C(F)(F)F)cc2)C1)C(F)(F)F (centres unmarked) [Example 63, 2-Chloro-3-({3-[4-(trifluoromethyl)phenyl]azetidin-1-yl}carbonyl)-4-[(1,1,1-trifluoropropan-2-yl)oxy]benzonitrile] | 100 to 1000
7 | COc1c(C#N)ccc(O[C@@H](C)C(F)(F)F)c1C(=O)N1CC(c2ccc(Cl)cc2C#N)C1 [Example 126, 3-{[3-(4-Chloro-2-cyanophenyl)azetidin-1-yl]carbonyl}-2-methoxy-4-{[(2S)-1,1,1-trifluoropropan-2-yl]oxy}benzonitrile] | < 100
8 | CC(Oc1ccc(C#N)c(Cl)c1C(=O)N1CC(c2ccccc2F)C1)C(F)(F)F (centres unmarked) [Example 87, 2-Chloro-3-{[3-(2-fluorophenyl)azetidin-1-yl]carbonyl}-4-[(1,1,1-trifluoropropan-2-yl)oxy]benzonitrile] | 100 to 1000
9 | COc1c(C#N)ccc(C2CCCC2)c1C(=O)N1CC(c2ncc(C(F)(F)F)cc2F)C1 [Example 210, 4-Cyclopentyl-3-{3-[3-fluoro-5-(trifluoromethyl)pyridin-2-yl]azetidine-1-carbonyl}-2-methoxybenzonitrile] | < 100
10 | COc1c(C#N)ccc(C2(F)CCOCC2)c1C(=O)N1CC(c2ccc(C#N)cc2Cl)C1 [Example 132, 3-{[3-(2-Chloro-4-cyanophenyl)azetidin-1-yl]carbonyl}-4-(4-fluorooxan-4-yl)-2-methoxybenzonitrile] | < 100
11 | COc1c(S(C)(=O)=O)ccc(O[C@@H](C)C(F)(F)F)c1C(=O)N1CC(c2ccc(C(F)(F)F)cc2Cl)C1 [Example 146, 3-[2-Chloro-4-(trifluoromethyl)phenyl]-1-(3-methanesulfonyl-2-methoxy-6-{[(2S)-1,1,1-trifluoropropan-2-yl]oxy}benzoyl)azetidine] | < 100
12 | COc1c(C#N)ccc(OCC(F)(F)F)c1C(=O)N1CC(c2ccc(C(F)(F)F)cn2)C1 [Example 125, 2-Methoxy-4-(2,2,2-trifluoroethoxy)-3-({3-[5-(trifluoromethyl)pyridin-2-yl]azetidin-1-yl}carbonyl)benzonitrile] | < 100
13 | COc1c(S(C)(=O)=O)ccc(O[C@H](C)C(F)(F)F)c1C(=O)N1CC(c2ccc(C(F)(F)F)cc2F)C1 [Example 138, 3-[2-Fluoro-4-(trifluoromethyl)phenyl]-1-(3-methanesulfonyl-2-methoxy-6-{[(2R)-1,1,1-trifluoropropan-2-yl]oxy}benzoyl)azetidine] | 100 to 1000
14 | COc1ccc(C2CN(C(=O)c3c(OC(C)C(F)(F)F)ccc(C#N)c3Cl)C2)cc1 (centres unmarked) [Example 80, 2-Chloro-3-{[3-(4-methoxyphenyl)azetidin-1-yl]carbonyl}-4-[(1,1,1-trifluoropropan-2-yl)oxy]benzonitrile] | 1000 to 10000
15 | COc1c(C#N)ccc(O[C@H](C)C(F)(F)F)c1C(=O)N1CC(c2ccc(C(F)(F)F)cc2)C1 [Example 256, 2-Methoxy-3-({3-[4-(trifluoromethyl)phenyl]azetidin-1-yl}carbonyl)-4-{[(2R)-1,1,1-trifluoropropan-2-yl]oxy}benzonitrile] | 1000 to 10000
16 | COc1c(C#N)ccc(O[C@@H](C)C(F)(F)F)c1C(=O)N1CC(c2ccc(C3CCOCC3)cn2)C1 [Example 159, 2-Methoxy-3-{3-[5-(oxan-4-yl)pyridin-2-yl]azetidine-1-carbonyl}-4-{[(2S)-1,1,1-trifluoropropan-2-yl]oxy}benzonitrile] | < 100
17 | COc1c(C#N)ccc(C2(F)CCCC2)c1C(=O)N1CC(c2ccc(C(F)(F)F)cc2)C1 [Example 197, 4-(1-Fluorocyclopentyl)-2-methoxy-3-{3-[4-(trifluoromethyl)phenyl]azetidine-1-carbonyl}benzonitrile] | < 100
18 | COc1c(C#N)ccc(O[C@@H](C)C(F)(F)F)c1C(=O)N1CC(c2ccc(C3CCOCC3)cc2)C1 [Example 158, 2-Methoxy-3-{3-[4-(oxan-4-yl)phenyl]azetidine-1-carbonyl}-4-{[(2S)-1,1,1-trifluoropropan-2-yl]oxy}benzonitrile] | < 100
19 | COc1c(C#N)ccc(C2(F)CCOCC2)c1C(=O)N1CC(Nc2ccc(C(F)(F)F)cn2)C1 [Example 1, 4-(4-Fluorotetrahydro-2H-pyran-4-yl)-2-methoxy-3-(3-((5-(trifluoromethyl)pyridin-2-yl)amino)azetidine-1-carbonyl)benzonitrile] | < 100
20 | COc1c(C#N)ccc(OC(C)C(F)(F)F)c1C(=O)N1CC(c2ccc(F)c(F)c2)C1 (centres unmarked) [Example 101, 3-{[3-(3,4-Difluorophenyl)azetidin-1-yl]carbonyl}-2-methoxy-4-[(1,1,1-trifluoropropan-2-yl)oxy]benzonitrile] | < 100
21 | COc1c(C#N)ccc(C2CCCC2)c1C(=O)N1CC(Oc2ccc(C(F)(F)F)cc2)C1 [Example 211, 4-Cyclopentyl-2-methoxy-3-{3-[4-(trifluoromethyl)phenoxy]azetidine-1-carbonyl}benzonitrile] | 100 to 1000
22 | COc1c(C#N)ccc(O[C@@H](C)C(F)(F)F)c1C(=O)N1CC(Oc2ccc(C(F)(F)F)cc2)C1 [Example 30, 2-Methoxy-3-({3-[4-(trifluoromethyl)phenoxy]azetidin-1-yl}carbonyl)-4-{[(2S)-1,1,1-trifluoropropan-2-yl]oxy}benzonitrile] | 100 to 1000
23 | COc1c(C#N)ccc(O[C@@H](C)C(F)(F)F)c1C(=O)N1CC(C(F)(F)c2ccc(C(F)(F)F)cc2)C1 [Example 4, (S)-3-(3-(difluoro(4-(trifluoromethyl)phenyl)methyl)azetidine-1-carbonyl)-2-methoxy-4-((1,1,1-trifluoropropan-2-yl)oxy)benzonitrile] | < 100

Source: patent US10040759B2, “Substituted azetidinyl compounds as GlyT1 inhibitors” (DART NEUROSCIENCE (CAYMAN) LTD., priority 2014, dated 2018)
